Data as given in ChEMBL document CHEMBL3399936, “Selective CB2 receptor agonists. Part 1: the identification of novel ligands through computer-aided drug design (CADD) approaches” (Bioorg Med Chem Lett, 2015).
≈ marks a conversion by molar mass, not a printed value.

Key:
[1] = molecular target: T1, Cannabinoid receptor 1 (Homo sapiens, UniProt P21554); assay: Partial agonist activity at human CB1 receptor expressed in CHO cells assessed as cAMP accumulation after 30 mins; format: functional, cell-based
[2] = species: Homo sapiens; assay: Ratio of EC50 for human CB1 receptor to EC50 for human CB2 receptor
[3] = molecular target: T1, Cannabinoid receptor 1; assay: Inhibition of human CB1 receptor expressed in CHO cells assessed as inhibition of forskolin-induced cAMP accumulation after 30 mins; format: functional, cell-based
[4] = molecular target: Cannabinoid receptor 2 (Homo sapiens, UniProt P34972); assay: Inhibition of human CB2 receptor expressed in CHO cells assessed as inhibition of forskolin-induced cAMP accumulation after 30 mins; format: functional, cell-based
[5] = Half life in human liver microsomes at 1 uM by LC/MS/MS analysis; format: ADME
[6] = Solubility of the compound at pH 7.4 after 16 to 18 hrs by UV spectrophotometry; format: physicochemical; conditions: buffer

T1 sequence (P21554 whole entry): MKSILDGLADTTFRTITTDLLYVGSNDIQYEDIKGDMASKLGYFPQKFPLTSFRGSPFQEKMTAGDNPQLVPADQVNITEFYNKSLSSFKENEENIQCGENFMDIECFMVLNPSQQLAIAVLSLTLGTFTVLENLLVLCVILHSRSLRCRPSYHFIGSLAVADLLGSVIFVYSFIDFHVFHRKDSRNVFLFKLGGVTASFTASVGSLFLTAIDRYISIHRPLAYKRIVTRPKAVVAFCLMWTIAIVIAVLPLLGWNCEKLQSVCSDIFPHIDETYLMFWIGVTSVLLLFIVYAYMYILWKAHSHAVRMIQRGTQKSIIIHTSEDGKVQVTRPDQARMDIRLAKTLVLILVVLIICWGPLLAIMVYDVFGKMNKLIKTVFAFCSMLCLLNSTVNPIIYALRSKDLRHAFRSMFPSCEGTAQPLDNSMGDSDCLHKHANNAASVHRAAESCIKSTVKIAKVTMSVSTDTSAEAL
Cannabinoid receptor 2, sequence (P34972 whole entry): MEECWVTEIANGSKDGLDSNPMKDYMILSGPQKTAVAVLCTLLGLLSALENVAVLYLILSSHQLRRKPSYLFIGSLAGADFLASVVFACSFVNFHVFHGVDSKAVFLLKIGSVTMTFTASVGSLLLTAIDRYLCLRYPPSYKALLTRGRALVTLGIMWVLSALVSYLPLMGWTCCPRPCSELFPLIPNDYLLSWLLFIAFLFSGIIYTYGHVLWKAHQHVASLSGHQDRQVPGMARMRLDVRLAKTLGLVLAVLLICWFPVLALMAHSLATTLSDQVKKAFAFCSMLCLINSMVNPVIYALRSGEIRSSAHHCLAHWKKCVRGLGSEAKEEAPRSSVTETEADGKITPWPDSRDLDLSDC

| SMILES | Activity [1] | Ratio EC50 [2] | EC50 [3] | EC50 [4] | half-life at 1 µM [5] | solubility [6] |
| --- | --- | --- | --- | --- | --- | --- |
| CC(C)(C)c1cc(NC(=O)[C@H]2CCCN2c2ccc(C(F)(F)F)cc2)no1 | < 70% | – | – | – | – | – |
| CC(C)(C)c1cc(NC(=O)[C@@H]2CCCN2c2ncc(C(F)(F)F)cc2Cl)no1 | – | 88 | 7 nM | – | – | – |
| CC(C)(C)c1cc(NC(=O)[C@]2(C)CCCN2c2ccc(C(F)(F)F)cn2)no1 | – | 12 | 0.5 nM | 0.04 nM | – | – |
| CC(C)(C)c1cc(NC(=O)[C@H]2CCCN2c2ccc(Cl)cc2)no1 | < 70% | – | – | – | – | – |
| O=C(Nc1cc(C(F)(F)F)on1)N1CCCN(C(=O)c2ccc(C(F)(F)F)cc2)CC1 | – | 714 | 1000 nM | 1.4 nM | – | – |
| CC(C)(C)c1cc(NC(=O)[C@]2(C)CCCN2c2ccc(C(F)(F)F)cc2)no1 | – | 52 | 15 nM | 0.29 nM | – | – |
| CC(C)(C)c1cc(NC(=O)C(C)(C)S(=O)(=O)c2ccc(C(F)(F)F)cn2)no1 | – | 140 | 420 nM | 3 nM | < 5 min | 12 µg/mL (≈ 28.6 µM) |
| CC(C)(C)c1cc(NC(=O)N2CC3CC2CN3C(=O)c2ccc(C(F)(F)F)cc2)no1 (stereo not given) | – | – | – | > 20 nM | – | – |
| CC(C)(C)c1cc(NC(=O)C(C)(C)S(=O)(=O)c2ccc(C(F)(F)F)cc2)no1 | – | 545 | 420 nM | 0.77 nM | – | – |
| CCCCc1ccc(NC(=O)N2CCN(C(=O)CCC3CCCC3)CC2)cc1 | – | – | – | > 20 nM | – | – |
| CC(C)(C)c1cc(NC(=O)[C@]2(C)CCCN2c2ccc(Cl)cc2)no1 | – | 257 | 54 nM | – | – | – |
| O=C(Nc1cc(C(F)(F)F)on1)N1CCCN(C(=O)c2ccc(C(F)(F)F)cn2)CC1 | – | 50 | 253 nM | 5 nM | 9 min | 0.4 µg/mL (≈ 0.886 µM) |
